Holding throughout (assay type): cell-based
The test system of assay [1] is Chlamydia trachomatis strains 1-5 in HEp-2 cells. Conditions: 1 hour PT. How it is done:
After infection, there was no change of media at the 4 h time point. Once in an exponential growth phase, 20 hours PI, cells were treated with a single dose of different antibiotics. […] Strains used for this treatment protocol were Strain 1) serovar D lab strain (UW-3/Cx), Strain 2) serovar L2 wild type lab strain (434/Bu), Strain 3) serovar L2 lab created mutant strain, resistant to trimethoprim, Strain 4) serovar L2 lab created mutant strain, resistant to Spectinomycin and Strain 5) serovar L2 lab created mutant strain, resistant to Rifampicin. […] Samples were then incubated at 37° C. with 5% CO2 and harvested at 1 hour PT, using SPG buffer and extracted immediately. Two biological replicates were obtained for each condition.
The following example analyses the susceptibility of bacteria to a given drug, by estimation of the change of GAT levels relative to NED in TNA samples. These were then compared between samples treated with antibiotic and not treated (control). […] Treatment was as described in example 1, Treatment E (1.1.5). To obtain a measure GAT, Chlamydia DNA and RNA was amplified by RT-PCR using primers targeting two different locations of the omp1 gene and its transcripts. To measure NED, another region of Chlamydia DNA was co-amplified in the same RT-PCR using primers targeting a region of genomic DNA which is not transcribed. The levels of GAT and NED were estimated and used to calculate VITA Index. Further to this the VITA Indices of treated and untreated samples were used to calculate the ΔVITA Ratio.
Partzyme oligonucleotides, Reporter substrates and PCR primers used for amplification and detection of GAT1, GAT2 and NED were as per example 9 (9.1, 9.2 and 9.3 respectively). The RT-PCR conditions used were as described in Example 9 (9.5) and reactions contained either 5 μL of TNA template (1/1000 dilution) or no target (dH2O).
Chlamydia DNA and RNA from 2 GAT regions and one NED region, were co-amplified and detected in single RT-PCR from TNA extracted from chlamydia cultures. These cultures were treated with antibiotic or left untreated (control) at an exponential growth phase and harvested at 1 hour post treatment. […] The ΔCt was calculated as the differences between the Ct values of the NED and GAT1/2 signals.
The following example analyses the susceptibility of bacteria to a given drug, by estimation of the change of GAT levels relative to NED in TNA samples. These were then compared between samples treated with antibiotic and not treated (control). […] To obtain a measure GAT, Chlamydia DNA and RNA was amplified by RT-PCR using primers targeting two different locations of the omp1 gene and its transcripts. To measure NED, another region of Chlamydia DNA was co-amplified in the same RT-PCR using primers targeting a region of genomic DNA which is not transcribed. The levels of GAT and NED were estimated and used to calculate VITA Index. Further to this the VITA Indices of treated and untreated samples were used to calculate the ΔVITA.
Chlamydia DNA and RNA from 2 GAT regions and one NED region, were co-amplified and detected in single RT-PCR from TNA extracted from chlamydia cultures. These cultures were treated with antibiotic (Rifampicin) or left untreated (control) during the exponential growth phase and harvested at one hour post treatment. […] The ΔCt was calculated as the differences between the Ct values of the NED and GAT1/2 signals.

The subject of assay [2] is Chlamydia trachomatis strains 1-5. Briefly: Minimum inhibitory concentration (MIC) of antibiotics, predetermined by standard procedures. The method, then:
After infection, there was no change of media at the 4 h time point. Once in an exponential growth phase, 20 hours PI, cells were treated with a single dose of different antibiotics. […] Strains used for this treatment protocol were Strain 1) serovar D lab strain (UW-3/Cx), Strain 2) serovar L2 wild type lab strain (434/Bu), Strain 3) serovar L2 lab created mutant strain, resistant to trimethoprim, Strain 4) serovar L2 lab created mutant strain, resistant to Spectinomycin and Strain 5) serovar L2 lab created mutant strain, resistant to Rifampicin. MIC for all serovars and each antibiotic was predetermined, using standard procedures documented in literature, and listed in the table below. […] Strains 1, 2, 3 and 4 are also susceptible to rifampicin, whilst strain 5 is resistant to that same antibiotic. Samples were then incubated at 37° C. with 5% CO2 and harvested at 1 hour PT, using SPG buffer and extracted immediately. Two biological replicates were obtained for each condition.

Assay [3] deals with Chlamydia trachomatis (serovar D) in HEp-2 cells. In words: Antibiotic susceptibility testing by VITA PCR, azithromycin, Treatment Protocol B. To be noted: Example 7: 0.128 μg/mL at 24 h PI. The method, then:
The levels of GAT and NED were estimated and used to calculate VITA Index.
(§1) The ΔCt was calculated as the differences between the Ct values of the NED and GAT1/2 signals.
To measure NED, another region of Chlamydia DNA was co-amplified in the same RT-PCR using primers targeting a region of genomic DNA which is not transcribed. The levels of GAT and NED were estimated and used to calculate VITA Index.
as §1

Assay [4] relates to Chlamydia trachomatis strain 1 and strain 5 in HEp-2 cells. In words: Antibiotic susceptibility testing by VITA PCR, rifampicin, short incubation, Treatment Protocol C. Conditions: for ΔVITA Ratio A/B: 0.256 μg/mL; for VITA Index: plus antibiotic 0.256 μg/mL. How it is done:
After infection, there was no change of media at the 4 hour time point, essentially creating an unsynchronised population, which would be more similar to in vivo conditions. Once at an exponential growth phase, 20 hours PI, treatment was applied. This was achieved by replacing the DMEM for each well, with addition of either i) no antibiotic, or ii) antibiotic (0.256 μg/mL of Rifampicin). Samples were then either incubated at 37° C. with 5% CO2, and harvested after 5 minutes PT; or incubated at room temperature and harvested after 15 minutes PT. SPG buffer was used for harvest and TNA was extracted immediately after. Strains used for this treatment protocol were Strain 1) serovar D lab strain (UW-3/Cx), susceptible to rifampicin, and Strain 5) serovar L2 lab created mutant strain, resistant to Rifampicin.
The following example estimates the change of GAT levels relative to NED in TNA samples extracted from HEp-2 cells which had been infected with Chlamydia trachomatis strain 1 and strain 5 (serovar D lab strain and serovar L2 strain resistant to rifampicin respectively). TNA was extracted from cells, which had been either treated with the antibiotic Rifampicin at a concentration of 0.256 μg/mL, or not treated (control), at 20 hours post infection whilst in an exponential growth phase. Treatment was as described in example 1, Treatment C (1.1.3). To obtain a measure GAT, Chlamydia DNA and RNA was amplified by RT-PCR using primers targeting two different locations of the omp1 gene and its transcripts. To measure NED, another region of Chlamydia DNA was co-amplified in the same RT-PCR using primers targeting a region of genomic DNA which is not transcribed. The levels of GAT and NED were estimated and used to calculate VITA Index. Further to this the VITA Indices of treated and untreated samples were used to calculate the ΔVITA Ratio.
The reactions contained either 5 μL of TNA template (1/1000 dilution) or no target (dH2O).
Chlamydia DNA and RNA from 2 regions within the omp1 gene and transcripts (GAT1 and GAT2), and one NED region, were co-amplified and detected in single RT-PCR from TNA extracted from chlamydia cultures. These cultures were treated with antibiotic or left untreated (control) at an exponential growth phase. They were incubated for either 5 minutes at 37° C. (FIG. 7D) or 15 minutes at room temperature (FIG. 7E). […] The results were then compared between no treatment reactions (control) and those treated with antibiotic at each time point (FIGS. 7D-E).

[5] abbreviates: Strain 1, serovar D lab strain (UW-3/Cx).
[6] abbreviates: Strain 2, serovar L2 wild type lab strain (434/Bu).
Setting [7] is: Strain 3, serovar L2 mutant resistant to trimethoprim.
Setting [8] is: Strain 4, serovar L2 mutant resistant to Spectinomycin.
Setting [9] is: Strain 5, serovar L2 mutant resistant to Rifampicin.
The mark [10] stands for this setting: Resistant strain (strain 5), 5 min incubation PT at 37° C. with 5% CO2.
Where [11] appears, read: Resistant strain (strain 5), 15 min incubation PT at room temperature.
Where [12] appears, read: Susceptible strain (strain 1), 5 min incubation PT at 37° C. with 5% CO2.
The mark [13] stands for this setting: Susceptible strain (strain 1), 15 min incubation PT at room temperature.

SMILES strings stand for the structures. Converted amounts (≈) assume the structure as drawn. Where two headings read alike, the source gives them in different places.

As to `C[C@H]1c2cccc(O)c2C(=O)C2=C(O)[C@]3(O)C(=O)C(C(N)=O)=C(O)[C@@H](N(C)C)[C@@H]3[C@@H](O)[C@@H]21` [Doxycycline], the “ΔVITA Ratio A/B” value in assay [1] (Table 12b: Strain 1, 0.256 μg/mL) worked out at 1.48; in assay [1] (Table 12b: Strain 2, 0.256 μg/mL), 1.24; in assay [1] (Table 12b: Strain 3, 0.256 μg/mL) it was 1.32; in assay [1] (Table 12b: Strain 5, 0.256 μg/mL) it was 1.43. The “VITA Index” value in assay [1] (Table 12b: Strain 1, plus antibiotic 0.256 μg/mL) is on record as 2.80; in assay [1] (Table 12b: Strain 2, plus antibiotic 0.256 μg/mL), 3.92; in assay [1] (Table 12b: Strain 3, plus antibiotic 0.256 μg/mL) it was 5.64; in assay [1] (Table 12b: Strain 5, plus antibiotic 0.256 μg/mL), 5.01. Besides, the “Minimum inhibitory concentration (MIC), antibiotic dose” value (“Minimum inhibitory concentration (MIC)” for short) in assay [2] (setting [5]) is 0.128 µg/mL (≈ 0.288 µM); in assay [2] (setting [6]), 0.064 µg/mL (≈ 0.144 µM); in assay [2] (setting [7]) it was 0.032 µg/mL (≈ 0.072 µM); in assay [2] (setting [8]), 0.064 µg/mL (≈ 0.144 µM); in assay [2] (setting [9]) it was 0.064 µg/mL (≈ 0.144 µM).

On to `CC[C@H]1OC(=O)[C@H](C)[C@@H](O[C@H]2C[C@@](C)(OC)[C@@H](O)[C@H](C)O2)[C@H](C)[C@@H](O[C@@H]2O[C@H](C)C[C@H](N(C)C)[C@H]2O)[C@](C)(O)C[C@@H](C)CN(C)[C@H](C)[C@@H](O)[C@]1(C)O` [Azithromycin], for which the “ΔVITA A/B (no antibiotic / plus antibiotic)” value in assay [3] (1 h PT) turned out to be 3.77; in assay [3] (6 h PT), 2.12. The “Minimum inhibitory concentration (MIC)” value in assay [2] (setting [5]) stood at 0.032 µg/mL (≈ 0.0427 µM); in assay [2] (setting [6]), 0.032 µg/mL (≈ 0.0427 µM); in assay [2] (setting [7]), 0.016 µg/mL (≈ 0.0214 µM); in assay [2] (setting [8]) it was 0.016 µg/mL (≈ 0.0214 µM); in assay [2] (setting [9]), 0.032 µg/mL (≈ 0.0427 µM). Moreover, the “Susceptibility according to the MIC analysis” value in assay [2] (all strains used) was “susceptible”.

As to `CO[C@H]1/C=C/O[C@@]2(C)Oc3c(C)c(O)c4c(O)c(c(/C=N/N5CCN(C)CC5)c(O)c4c3C2=O)NC(=O)/C(C)=C\C=C\[C@H](C)[C@H](O)[C@@H](C)[C@@H](O)[C@@H](C)[C@H](OC(C)=O)[C@@H]1C` [Rifampicin], the “ΔVITA Ratio A/B” value in assay [1] (Table 13: Strain 1, 0.256 μg/mL) was found to be 3.54; in assay [1] (Table 13: Strain 2, 0.256 μg/mL) it was 2.93; in assay [1] (Table 13: Strain 3, 0.256 μg/mL), 4.70; in assay [1] (Table 13: Strain 4, 0.256 μg/mL) it was 5.86; in assay [1] (Table 13: Strain 5 (Rifampicin resistant), 0.256 μg/mL) it was 1.06; in assay [4] (setting [10]), 1.07. In addition, the “ΔVITA Ratio A/B” value in assay [4] (setting [11]) is 0.91; in assay [4] (setting [12]) it was 1.90; in assay [4] (setting [13]), 1.80. The “VITA Index” value stood at 1.17 in assay [1] (Table 13: Strain 1, plus antibiotic 0.256 μg/mL); 1.66 in assay [1] (Table 13: Strain 2, plus antibiotic 0.256 μg/mL); 1.58 in assay [1] (Table 13: Strain 3, plus antibiotic 0.256 μg/mL); 1.68 in assay [1] (Table 13: Strain 4, plus antibiotic 0.256 μg/mL); 6.71 in assay [1] (Table 13: Strain 5 (Rifampicin resistant), plus antibiotic 0.256 μg/mL); 11.18 in assay [4] (setting [10]). The “VITA Index” value was found to be 11.41 in assay [4] (setting [11]), 4.69 in assay [4] (setting [12]) and 4.41 in assay [4] (setting [13]). Also, the “Minimum inhibitory concentration (MIC)” value worked out at 0.008 µg/mL (≈ 0.00972 µM) in assay [2] (setting [5]); 0.004 µg/mL (≈ 0.00486 µM) in assay [2] (setting [6]); 0.004 µg/mL (≈ 0.00486 µM) in assay [2] (setting [7]); 0.004 µg/mL (≈ 0.00486 µM) in assay [2] (setting [8]); 8.192 µg/mL (≈ 9.95 µM) in assay [2] (setting [9]).

Values taken from patent US12123051B2, “Nucleic acid ratio determination” (priority 2017, dated 2024).
